For data set [1] the following is noted: cited from earlier work.
For data set [2] the following is noted: cited from earlier work. This is another data set of the same source.
Data set [3] in a line: Hydrolysis in aqueous buffer solution pH 7.4. Format: physicochemical. As to conditions: pH 7.4, 37° C., read-out: half-life of hydrolysis in pure buffer solution.
Protocol: Solutions of various derivatives of this invention in aqueous buffer solutions or 50-80% human plasma solutions (pH 7.4) were kept at 37° C. The initial concentration of the derivatives was in the range 3×10^-4 -10^-5 M. At various times an aliquot of the solutions was withdrawn and analyzed by HPLC for remaining derivative as well as for parent acid. For the plasma solutions the aliquot withdrawn was deproteinized with methanol, ethanol or acetonitrile and after centrifugation, the clear supernatant was injected on HPLC.
An HPLC method was used for the determination of the ester derivatives and their parent acids. In this method a reversed-phase LiChrosorb RP-8 column (250×4 mm) was eluted at ambient temperature with mixtures of methanol and 0.01M acetate buffer pH 5.0, methanol and 0.01M phosphate buffer pH 4.5 or methanol and 0.02M phosphate buffer pH 3.5. the composition of the eluant was adjusted for each compound in order to provide an appropriate retention time and separation of ester and the corresponding acid. The flow-rate was 0.6-1.6 ml/min and the column effluent was monitored spectrophotometrically at an appropriate wavelength. Quantitation of the compounds was done by measurement of the peak heights in relation to those of standards chromatographed under the same conditions.
A short description of data set [4]: Stability in acidic media (0.01M HCl). Format: physicochemical. Particulars: 37° C., read-out: hydrolysis in 0.01M HCl.

The values that follow come from patent US5073641A, “Prodrug derivatives of carboxylic acid drugs” (priority 1986, dated 1991).

Regarding `CCOC(=O)[C@H](C)C[C@@H](C)C(=O)N1c2ccccc2C[C@H]1C(=O)O` [Pentopril], in data set [1] (oral, Rakhit & Tipnis, 1985), the “part of oral dose deesterified in vivo to the active parent acid” value was “less than 50%”. In data set [2], the “hydrolysis by plasma enzymes / stability in plasma” value is given as “highly stable in human plasma”.
`CCOC(=O)[C@H](CCc1ccccc1)N[C@@H](C)C(=O)N1CCC[C@H]1C(=O)O` [Enalapril]: the “availability of the active parent acid” value in data set [1] (Todd & Heel, 1986) was “incomplete availability of the active parent acid”. In addition, the “hydrolysis by plasma enzymes / stability in plasma” value in data set [2] is recorded as “Plasma enzymes do not hydrolyze the ester”.
As to `CCN(CC)C(=O)COC(=O)c1ccccc1` [Example 10, 2-(benzoyloxy)-N,N-diethylacetamide], the “S, solubility in water” value was determined as 2000 µg/mL. Further, the half-life in data set [3] is more than 41.7 days. Moreover, the degraded at 3 h in data set [4] is less than 1%.

Usually half-life stands for the time in which the quantity being followed falls by half.
